Test results published in US20100009935A1, “RESISTANCE-REPELLENT […] INHIBITORS” (priority 2002, published 2010).
Where two headings read alike, the source gives them in different places.

Assays:
Format in all cases: cell-based
[1] = system: HIV-1 clinical isolate 5; experiment: PI sensitivity of PI-resistant clinical isolate 5 in PHA-PBMC, p24
[2] = system: HIV-1 clinical isolate 4; experiment: PI sensitivity of PI-resistant clinical isolate 4 in PHA-PBMC, p24
[3] = system: HIV-1UIC-P62; experiment: PI sensitivity of compound 1-selected HIV-1UIC-P62 in MT-2 cells, MTT assay; details: Human immunodeficiency virus 1, MT2, 168 h, HIV-1UIC-P62 (L10F, A28S, M46I, I50V, A71V, N88D), day 7
[4] = system: HIV-1LAI; experiment: microbe, parasite or virus in culture; details: day 7, read-out: MEAN IC50 (μM) ± SDs
Method: (§1) The sensitivities of HIV-1LAI, HIV-1Ba-L, HIV-2EHO and the primary HIV-1 isolates against various drugs were determined as previously described with minor modifications (Shiraska et al., Proc. Natl. Acad. Sci. USA, 92, 2398-2402 (1995)).

[5] = system: HIV-1Ba-L; experiment: microbe, parasite or virus in culture; details: Human immunodeficiency virus 1, 168 h, PBNC (PHA-PBMC), p24 production, day 7, read-out: MEAN IC50 (μM) ± SDs
Method: as §1

[6] = system: HIV-1NL4-3
[7] = system: HIV-1 clinical isolate 1; experiment: PI sensitivity of PI-resistant clinical isolate 1 in PHA-PBMC, p24
[8] = system: HIV-1ERS104pre (wild-type clinical strain); experiment: PI sensitivity of wild-type clinical isolate in PHA-PBMC, p24
[9] = system: HIV-2EHO; experiment: Drug sensitivity of HIV-2EHO in MT-2 cells, MTT assay; details: Human immunodeficiency virus 2, MT2, 168 h, HT-2 (footnote: MT-2 cells), day 7, read-out: MEAN IC50 (μM) ± SDs
Method: as §1

[10] = system: HIV-1APV-P30; experiment: PI sensitivity of APV-selected HIV-1APV-P30 in MT-2 cells, MTT assay
[11] = system: highly cross-resistant HIV-1 strains derived from AIDS patients
[12] = system: HIV-1 clinical isolate 8; experiment: PI sensitivity of PI-resistant clinical isolate 8 in PHA-PBMC, p24
[13] = system: HIV-1 clinical isolate 3; experiment: PI sensitivity of PI-resistant clinical isolate 3 in PHA-PBMC, p24
[14] = system: HIV-1 clinical isolate 6; experiment: PI sensitivity of PI-resistant clinical isolate 6 in PHA-PBMC, p24
[15] = system: HIV-1 clinical isolate 7; experiment: PI sensitivity of PI-resistant clinical isolate 7 in PHA-PBMC, p24
[16] = system: HIV-1 clinical isolate 2; experiment: PI sensitivity of PI-resistant clinical isolate 2 in PHA-PBMC, p24

CC(C)(C)NC(=O)[C@@H]1C[C@@H]2CCCC[C@@H]2CN1C[C@@H](O)[C@H](Cc1ccccc1)NC(=O)[C@H](CC(N)=O)NC(=O)c1ccc2ccccc2n1 [SQV, Saquinavir]
IC50 ([1]; Human immunodeficiency virus 1, isolate 5: L10I, K43T, N46L, I54L, L63P, A71T, V82A, L90N, D92K, PHA-PBMC, p24): 310 nM | FOLD CHANGE of IC50 ([1]; isolate 5 compared to HIV-1wt (HIV-1ERS104pre)): (31) fold | IC50 ([2]; Human immunodeficiency virus 1, isolate 4: L10I, V11I, T12E, I15V, L19I, B41K, H46L, L63P, A71T, V82A, L90M, PHA-PBMC, p24): 33 nM | FOLD CHANGE of IC50 ([2]; isolate 4 compared to HIV-1wt (HIV-1ERS104pre)): (3) fold | IC50 [3]: 10 nM | IC50 ([4]; Human immunodeficiency virus 1, 168 h, PBMC (PHA-PBMC), p24 production): 0.011 ± 0.005 µM | IC50 ([4]; Human immunodeficiency virus 1, MT2, 168 h, HT-2 (footnote: MT-2 cells), MTT assay): 0.023 ± 0.002 µM | IC50 [5]: 0.014 ± 0.01 µM | FOLD CHANGE of IC50 ([6]; HIV-1NL4-3, reference (=1)): (1) fold | IC50 ([6]; Human immunodeficiency virus 1, MT2, 168 h, HIV-1NL4-3 (wild type), MT-2 cells, MTT assay, day 7): 19 nM | IC50 ([7]; Human immunodeficiency virus 1, isolate 1: L10I, K14R, L33I, N36I, H46I, F53L, K55R, I62V, L63P, A71V, G73S, V82A, L90M, I93L, PHA-PBMC, p24): 270 nM | FOLD CHANGE of IC50 ([7]; isolate 1 compared to HIV-1wt (HIV-1ERS104pre)): (27) fold | IC50 ([8]; Human immunodeficiency virus 1, read-out: IC50 μM): 0.03 µM | FOLD CHANGE of IC50 ([8]; wild type HIV-1ERS104pre, reference (=1)): (1) fold | IC50 [9]: 0.004 ± 0.0005 µM | FOLD CHANGE of IC50 ([10]; HIV-1APV-P30 compared to HIV-1NL4-3 (wild type)): (2) fold | IC50 ([10]; Human immunodeficiency virus 1, MT2, 168 h): 35 nM | level of resistance (fold), range over the isolates ([11]; compared to wild-type clinical strain HIV-1ERS104pre): 3-31 fold | antiviral activity against patient isolates with multiple mutations compared with wild type HIV strains (in words) ([11]; multidrug resistant patient isolates): dramatically less potent | IC50 ([12]; Human immunodeficiency virus 1, isolate 8: L10R, H37D, N46I, I62V, L63P, A71V, G73S, V77I, V82T, L90M, I93L, PHA-PBMC, p24): 42 nM | FOLD CHANGE of IC50 ([12]; isolate 8 compared to HIV-1wt (HIV-1ERS104pre)): (4) fold | IC50 ([13]; Human immunodeficiency virus 1, isolate 3: L10I, I15V, E35D, N37E, K45R, I54V, L63P, A71V, V82I, L90N, I93L, C95F, PHA-PBMC, p24): 36 nM | FOLD CHANGE of IC50 ([13]; isolate 3 compared to HIV-1wt (HIV-1ERS104pre)): (4) fold | IC50 ([14]; Human immunodeficiency virus 1, isolate 6: L10I, K14R, B41K, H46L, I54V, L63P, A71V, V82A, L90M, I93L, PHA-PBMC, p24): 190 nM | FOLD CHANGE of IC50 ([14]; isolate 6 compared to HIV-1wt (HIV-1ERS104pre)): (19) fold | IC50 ([15]; Human immunodeficiency virus 1, isolate 7: L10I, L24I, L33F, E35D, H36I, H37S, N46L, I54V, R57K, I62V, L63P, A71V, G73S, V82A, PHA-PBMC, p24): 120 nM | FOLD CHANGE of IC50 ([15]; isolate 7 compared to HIV-1wt (HIV-1ERS104pre)): (12) fold | IC50 ([16]; Human immunodeficiency virus 1, isolate 2: L10I, I15V, K20R, N36I, H46L, I54V, K55R, I62V, L63P, K70D, V82A, L89N, PHA-PBMC, p24): 37 nM | FOLD CHANGE of IC50 ([16]; isolate 2 compared to HIV-1wt (HIV-1ERS104pre)): (4) fold
